According to ChEMBL document CHEMBL1135008, “17S,20S-Methanofusidic acid, a new potent semi-synthetic fusidane antibiotic” (2002):
Values after ≈ are worked out from the molar mass of the structure shown.

How the values were obtained:
Assay type in all cases: functional
Streptococcus pyogenes = assay: Compound was tested for its antibacterial activity against Streptococcus pyogenes EC
Corynebacterium xerosis = assay: Compound was tested for its antibacterial activity against Corynebacterium xerosis NCTC 9755
[1] = system: Staphylococcus epidermidis; assay: Compound was tested for its antibacterial activity against Staphylococcus epidermidis ATCC 12228
Enterococcus faecium = assay: Compound was tested for its antibacterial activity against Enterococcus faecium EI 119, penicillin resistant
Cutibacterium acnes = assay: Compound was tested for its antibacterial activity against Propionibacterium acnes NCTC 737
Pseudomonas aeruginosa = assay: Compound was tested for its antibacterial activity against Pseudomonas aeruginosa ATCC 10145
Staphylococcus aureus [2] = assay: Compound was tested for its antibacterial activity against Staphylococcus aureus CJ 232 (MRSA)
[3] = system: Geobacillus stearothermophilus; assay: Compound was tested for its antibacterial activity against Bacillus stearothermophilus KG 5
Streptococcus sp. [4] = assay: Compound was tested for its antibacterial activity against Streptococcus sp. EF 6
Micrococcus luteus = assay: Compound was tested for its antibacterial activity against Micrococcus luteus ATCC 9341
Escherichia coli = assay: Compound was tested for its antibacterial activity against Escherichia coli HA 44
Staphylococcus aureus [5] = assay: Compound was tested for its antibacterial activity against Staphylococcus aureus ATCC 2977
Streptococcus sp. [6] = assay: Compound was tested for its antibacterial activity against Streptococcus sp. EG 14
Bacillus cereus = assay: Compound was tested for its antibacterial activity against Bacillus cereus ATCC 10876
[7] = system: Lactiplantibacillus plantarum; assay: Compound was tested for its antibacterial activity against Lactobacillus plantarum ATCC 8014
Enterococcus faecalis = assay: Compound was tested for its antibacterial activity against Enterococcus faecalis ATCC 10541
Clostridium perfringens = assay: Compound was tested for its antibacterial activity against Clostridium perfringens KT 13
[8] = system: Staphylococcus epidermidis; assay: Antimicrobial evaluation revealed potent activity against several Gram positive bacteria (Staphylococcus epidermidis ATCC 12228)

SMILES	MIC (Streptococcus pyogenes) [µg/mL]	MIC (Corynebacterium xerosis) [µg/mL]	MIC [1] [µg/mL]	MIC (Enterococcus faecium) [µg/mL]	MIC (Cutibacterium acnes) [µg/mL]	MIC (Pseudomonas aeruginosa) [µg/mL]	MIC (Staphylococcus aureus [2]) [µg/mL]	MIC [3] [µg/mL]	MIC (Streptococcus sp. [4]) [µg/mL]	MIC (Micrococcus luteus) [µg/mL]	MIC (Escherichia coli) [µg/mL]	MIC (Staphylococcus aureus [5]) [µg/mL]	MIC (Streptococcus sp. [6]) [µg/mL]	MIC (Bacillus cereus) [µg/mL]	MIC [7] [µg/mL]	MIC (Enterococcus faecalis) [µg/mL]	MIC (Clostridium perfringens) [µg/mL]	MIC [8] [µg/mL]
CC(=O)O[C@H]1C[C@@]2(C)C(C[C@@H](O)[C@H]3[C@@]4(C)CC[C@@H](O)[C@@H](C)[C@@H]4CC[C@@]32C)/C1=C(\CCC=C(C)C)C(=O)O (some centres undefined)	4 (≈ 7.74 µM)	0.04 (≈ 0.0774 µM)	0.001 (≈ 0.00194 µM)	0.02 (≈ 0.0387 µM)	0.02 (≈ 0.0387 µM)	1 (≈ 1.94 µM)	0.015 (≈ 0.029 µM)	0.03 (≈ 0.0581 µM)	4 (≈ 7.74 µM)	1 (≈ 1.94 µM)	> 125	0.006 (≈ 0.0116 µM)	16 (≈ 31 µM)	4 (≈ 7.74 µM)	4 (≈ 7.74 µM)	4 (≈ 7.74 µM)	16 (≈ 31 µM)	
CC(=O)O[C@H]1C[C@@]2(C)C(C[C@@H](O)[C@H]3[C@@]4(C)CC[C@@H](O)[C@@H](C)C4CC[C@@]32C)[C@]12C[C@]2(CCC=C(C)C)C(=O)O (some centres undefined)	16 (≈ 30.1 µM)	0.04 (≈ 0.0754 µM)		0.02 (≈ 0.0377 µM)	0.02 (≈ 0.0377 µM)	1 (≈ 1.88 µM)	0.014 (≈ 0.0264 µM)	0.03 (≈ 0.0565 µM)	16 (≈ 30.1 µM)	0.25 (≈ 0.471 µM)	> 125	0.003 (≈ 0.00565 µM)	63 (≈ 119 µM)	1 (≈ 1.88 µM)	63 (≈ 119 µM)	16 (≈ 30.1 µM)	16 (≈ 30.1 µM)	0.001 (≈ 0.00188 µM)
